ChEMBL document CHEMBL1201862, “PubChem BioAssay data set” (2004)
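How tested: cells in 96-well plates exposed to compound for 48 hours at five concentrations. Here, GI50 denotes the concentration required for 50% inhibition of growth.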 The source made the active and inactive calls. Cut-off read from the data, not from the text of the source: active = GI50 up to about 1.1 µM and inactive = higher.

Columns and labels:
Assay in all cases: NCI-60 cell line screen, 48 h
786-0 = test system: 786-0
A498 = test system: A498
A549 = test system: A549
ACHN = test system: ACHN
BT-549 = test system: BT-549
CAKI-1 = test system: CAKI-1
CCRF-CEM = test system: CCRF-CEM
COLO 205 = test system: COLO 205
DLD-1 = test system: DLD-1
DMS-273 = test system: DMS-273
DU-145 = test system: DU-145
EKVX = test system: EKVX
HCC 2998 = test system: HCC 2998
HCT-116 = test system: HCT-116
HCT-15 = test system: HCT-15
HL-60 = test system: HL-60
HOP-18 = test system: HOP-18
HOP-62 = test system: HOP-62
HOP-92 = test system: HOP-92
HT-29 = test system: HT-29
Hs-578T = test system: Hs-578T
IGROV-1 = test system: IGROV-1
K562 = test system: K562
KM-20L2 = test system: KM-20L2
KM12 = test system: KM12
LOX IMVI = test system: LOX IMVI
M14 = test system: M14
M19-MEL = test system: M19-MEL
MCF7 = test system: MCF7
MDA-MB-231 = test system: MDA-MB-231
MDA-N = test system: MDA-N
MOLT-4 = test system: MOLT-4
Malme-3M = test system: Malme-3M
NCI-H226 = test system: NCI-H226
NCI-H23 = test system: NCI-H23
NCI-H460 = test system: NCI-H460
NCI-H522 = test system: NCI-H522
NCI/ADR-RES = test system: NCI/ADR-RES
OVCAR-3 = test system: OVCAR-3
OVCAR-4 = test system: OVCAR-4
OVCAR-5 = test system: OVCAR-5
OVCAR-8 = test system: OVCAR-8
PC-3 = test system: PC-3
RPMI-8226 = test system: RPMI-8226
RXF 393 = test system: RXF 393
SF-268 = test system: SF-268
SF-295 = test system: SF-295
SF-539 = test system: SF-539
SK-MEL-28 = test system: SK-MEL-28
SK-MEL-2 = test system: SK-MEL-2
SK-MEL-5 = test system: SK-MEL-5
SK-OV-3 = test system: SK-OV-3
SN12C = test system: SN12C
SNB-19 = test system: SNB-19
SNB-75 = test system: SNB-75
SR = test system: SR
SW-620 = test system: SW-620
T47D = test system: T47D
TK-10 = test system: TK-10
U-251 = test system: U-251
UACC-257 = test system: UACC-257
UACC-62 = test system: UACC-62
UO-31 = test system: UO-31
XF498 = test system: XF498
LXFL 529 = test system: LXFL 529
SNB-78 = test system: SNB-78

Measured: GI50

Cc1c(-c2ccc(-c3ccccc3F)cc2)nc2ccc(F)cc2c1C(=O)O [BREQUINAR SODIUM]
inactive: A498 49.8 µM | BT-549 155 µM | EKVX 16 µM | HCC 2998 9.62 µM | HOP-18 46.1 µM | HOP-92 35.2 µM | Hs-578T 6.93 µM | M14 4.7 µM | M19-MEL 1.2 µM | MDA-MB-231 9.93 µM | Malme-3M 15.4 µM | NCI-H226 19.5 µM | NCI-H23 21.5 µM | NCI-H522 2 µM | NCI/ADR-RES 2.18 µM | OVCAR-3 3.74 µM | OVCAR-4 2.73 µM | OVCAR-5 38.8 µM | RXF 393 11.7 µM | SK-MEL-28 9.93 µM | SK-MEL-2 61.8 µM | SK-MEL-5 1.39 µM | SK-OV-3 16.1 µM | SN12C 1.79 µM | SNB-19 1.25 µM | SNB-75 30.3 µM | T47D 16.9 µM | TK-10 16.3 µM | UACC-257 12.5 µM | UO-31 1.14 µM | XF498 18.1 µM
0.0566 µM: HCT-15
active: 786-0 0.195 µM | A549 0.234 µM | ACHN 0.153 µM | CAKI-1 0.904 µM | CCRF-CEM 0.284 µM | COLO 205 0.519 µM | DLD-1 0.0875 µM | DMS-273 0.193 µM | DU-145 0.262 µM | HCT-116 0.104 µM | HL-60 0.479 µM | HOP-62 1.1 µM | HT-29 0.374 µM | IGROV-1 0.303 µM | K562 0.143 µM | KM-20L2 0.615 µM | KM12 0.211 µM | LOX IMVI 0.0931 µM | MCF7 0.267 µM | MDA-N 0.631 µM | MOLT-4 0.0887 µM | NCI-H460 0.128 µM | OVCAR-8 0.325 µM | PC-3 0.5 µM | RPMI-8226 0.373 µM | SF-268 0.372 µM | SF-295 0.243 µM | SF-539 0.346 µM | SR 0.427 µM | SW-620 0.384 µM | U-251 0.194 µM | UACC-62 0.265 µM

CC1CC2OC(=O)C3CC(O)CC(=C23)[C@@]12C[C@@H](c1ccoc1)OC2=O (stereo partly drawn)
> 100 µM: HCT-15
inactive: 786-0 > 100 µM | A549 > 100 µM | ACHN > 100 µM | CCRF-CEM > 100 µM | COLO 205 > 100 µM | DLD-1 > 100 µM | DMS-273 > 100 µM | EKVX > 100 µM | HCC 2998 > 100 µM | HCT-116 > 100 µM | HL-60 > 100 µM | HOP-18 > 100 µM | HOP-92 > 100 µM | HT-29 > 100 µM | IGROV-1 > 100 µM | K562 > 100 µM | KM-20L2 > 100 µM | KM12 > 100 µM | LOX IMVI > 100 µM | LXFL 529 > 100 µM | M14 > 100 µM | M19-MEL > 100 µM | MOLT-4 > 100 µM | Malme-3M > 100 µM | NCI-H226 > 100 µM | NCI-H23 > 100 µM | NCI-H460 > 100 µM | NCI-H522 > 100 µM | OVCAR-3 > 100 µM | OVCAR-4 > 100 µM | OVCAR-5 > 100 µM | OVCAR-8 > 100 µM | RPMI-8226 > 100 µM | RXF 393 > 100 µM | SF-268 > 100 µM | SF-295 > 100 µM | SF-539 > 100 µM | SK-MEL-28 > 100 µM | SK-MEL-2 > 100 µM | SK-MEL-5 > 100 µM | SK-OV-3 > 100 µM | SN12C > 100 µM | SNB-19 > 100 µM | SNB-75 > 100 µM | SNB-78 > 100 µM | SR > 100 µM | SW-620 > 100 µM | TK-10 > 100 µM | U-251 > 100 µM | UACC-257 > 100 µM | UACC-62 > 100 µM | UO-31 > 100 µM | XF498 > 100 µM
